Reference: patent publication US6596863B2, “Medical composition containing nitroetheneamine Derivative or salt there of as active constituent” (Ishihara Sangyo Kaisha, Ltd., priority 1998, dated 2003)
Marks after values point to notes of the source that are not given here.

Legend:
[1] = system: CPAE cells (bovine pulmonary-derived vascular endothelical cells); test: Inhibitory action against capillary-like tube formation of vascular endothelial cells, three dimensional collagen gel culture; assay type: cell-based; conditions: for Number of networks Average ± SD: n = 5, Day 4
Protocol: With reference to the method disclosed in a literature (Hayashi, J. N. et al, Virchows arch. (B), Vol. 60,245-252, 1991, Lee, D. Y. et al, Life Science, Vol. 60, 127-134, 1997), evaluation was carried out by the following method.
7 Parts by volume of type I-a collagen (manufactured by Nitta Gelatin K. K.) and 2 parts by volume of Dulbecco's Modified Eagle Medium (concentration: 5 times, containing no NaHCO3; No. D-5648, manufactured by Sigma Co.) were thoroughly mixed under cooling with ice, and then one part by volume of a collagen gel-reconstructing buffer solution (2.2% NaHCO3/0.2M HEPES/0.05N NaOH) was added thereto. To withdraw bubbles, centrifugal separation and supersonic treatment were carried out, and then 400 μl of the gel was introduced into 24 well multi-well plate (Code 3047, manufactured by Falcon Co.) and incubated at 37° C. for about 10 minutes for gelation.
On the gelled collagen, CPAE cells (bovine pulmonary-derived vascular endothelical cells; ATCC CCL209, purchased from Dainippon Seiyaku K. K.) was inoculated in a concentration of 4×10^4 cells/400 μl/well (Day 0). Thereafter the cells were cultured overnight at 37° C. in a 5% CO2 incubator. Next day (Day 1), after confirming that the cells were normally proliferating, the culture solution was removed by aspiration, and a fresh collagen gel (prepared in the same manner as the above layer) was overlaid in an amount of 200 μl/well and gelled.
On the gel, the test materials dissolved in 10% fetal bovine serum-containing Dulbecco's Modified Eagle Medium (No. D-5648, manufactured by Sigma Co.) (prepared to have a concentration four times the final concentration) was added in an amount of 200 μl, and culturing was continued under the same conditions. Upon expiration of three days from stratification (Day 4), capillary-like tube formation was observed by a microscope, and an optional field of view was photographed with 100 magnifications, whereupon the number of capillary-like structures formed (the number of networks) were visually counted with reference to the method disclosed in a literature by Yeong, H. et al (Cancer Research, Vol. 56, 2428-2433, 1996). For each test sample, 2 well treatment was carried out, and a total of five fields of view were photographed for evaluation.

[2] = system: mouse arthritis model induced by a single immunization with collagen; test: Mouse arthritis model induced by a single immunization with collagen; assay type: in vivo
Protocol: With reference to the method by Kato, F. et al (Annals of the Rheumatic Diseases, Vol. 55, 535-539, 1996), a bovine type II collagen (K-41, manufactured by collagen Gijutsu Kenkyukai) solution (3 mg/ml) dissolved in 0.05N acetic acid and Freund's complete adjuvant (Freund, Adjuvant Complete; No. F5506, manufactured by Sigma Co.) were mixed in equal amounts and subjected to ultrasonic treatment (under cooling with ice, 20 seconds×3 times) to obtain a uniform emulsion.
0.1 ml (150 μg) of the antigen prepared as described above, was administered to the tail head skin of a female DBA/1JNCrj mouse of 5 weeks old (purchased from Charles River Japan, Inc.) (Day 0). After 2 weeks from sensitization (Day 14), Compound No. 164 (50 mg/kg) suspended in a 1% Tween 80/physiological sodium chloride aqueous solution was intraperitoneally administered (administered in a volume of 10 ml/kg) once a day continuously for 5 weeks. To the vehicle control group, the 1% Tween 80/physiological sodium chloride aqueous solution was administered in the same manner.
Sideration of arthritis was observed once a week from Day 1 in accordance with the following evaluation standards disclosed in a literature of Kato, F. et al (Annals of the Rheumatic Diseases, Vol. 55, 535-539, 1996) with respect to Knuckle joints of the respective four limbs.

[3] = system: Colon 26/AD cells (mouse colon cancer); assay type: in vivo
Protocol: Colon 26 mouse colon cancer cells (obtained from Cancer Chemotherapy Center Foundation for Cancer Research) were transplanted subcutaneously to BALB/c mouse, 10 days later, the grown tumor was taken out. It was hashed in a Hanks equilibrium salt solution and passed through a metal mesh to obtain single cells, which were cultured in vitro (37° C., 5% CO2) (using 10% fetal bovine serum-containing Dulbecco's Modified Eagle Medium (D-5648, manufactured by Sigma Co.)). […] The same cell strain always produced and secreted MMP-2 in the supernatant of the in vitro culture, but when cultured by an addition of TNF-α (50 ng/ml) in the culture solution, it produced MMP-9 remarkably.
With reference to the method by Tsuruo et al (Japanese Journal of Cancer Research (Gann), Vol. 75, 193-198, 1984), the inhibition effects against experimental lung metastasis were evaluated. Namely, 3×10^4 Colon 26/AD cells (suspended in 0.2 ml of Minimum Essential Medium (manufactured by Nissui Seiyaku K. K.)) cultured in vitro were transplanted through the tail vein of a male BALB/c AnNCrj mouse (purchased from Charles River Japan, Inc.) of 6 weeks old (Day 0). In the case of Compound No. 37, it was suspended in a 1% Tween 80/physiological sodium chloride aqueous solution and intraperitoneally administered (administered in a volume of 10 ml/kg) immediately (within 5 minutes) before transplantation of the cells, 2 hours later and once per day on Day 1-4 and Day 7-11 (a total of 11 times). Further, in the case of Compound No. 157, it was dissolved in 100 mM Tris-HCl (pH 8.5)/150 mM NaCl and forcibly orally administered (administered in a volume of 10 ml/kg) by means of a metal sonde 30 minutes before transplantation of the cells, in the morning and evening of Day 1 and once per day on Day 2-4, Day 7-11 and Day 14 (a total of 12 times). To the vehicle control group, the respective solvents containing no test materials, were administered in the same manner. On Day 14 or Day 15, the lung of each mouse was taken out, and the weight was measured, and the metastatis inhibition rate was calculated in accordance with the following formula. [formula]
A is the weight of lung of the treated group
B is the average weight of lung of the normal group
C is the average weight of lung of the solvent control group.

Row | Compound | Inhibition ratio (%) against capillary-like tube formation ([1]; 0.1 μM) | Number of networks Average ± SD ([1]; 0.1 μM) | Inhibition ratio (%) against capillary-like tube formation ([1]; 1 μM) | Number of networks Average ± SD ([1]; 1 μM) | Inhibition ratio (%) against capillary-like tube formation ([1]; 10 μM) | Number of networks Average ± SD ([1]; 10 μM) | Inhibition ratio (%) against capillary-like tube formation ([1]; 100 μM) | Number of networks Average ± SD ([1]; 100 μM) | sideration of arthritis compared with the control group ([2]; 50 mg/kg intraperitoneal everyday from Day 14 for 5 weeks, female DBA/1J mouse, p<0.01, Wilcoxon ranking test) | toxicity / body weight increase by observation of general findings ([2]; 50 mg/kg intraperitoneal everyday, during the test period) | Sideration ratio of arthritis (number of diseased animals/number of tested animals) ([2]; Day 14 (initial of administration of drug), 50 mg/kg intraperitoneal, vehicle control 0/8) | Sideration ratio of arthritis (number of diseased animals/number of tested animals) ([2]; Day 21, 50 mg/kg intraperitoneal once a day, vehicle control 2/8) | Sideration ratio of arthritis (number of diseased animals/number of tested animals) ([2]; Day 28, 50 mg/kg intraperitoneal once a day, vehicle control 7/8) | Sideration ratio of arthritis (number of diseased animals/number of tested animals) ([2]; Day 35, 50 mg/kg intraperitoneal once a day, vehicle control 8/8) | Sideration ratio of arthritis (number of diseased animals/number of tested animals) ([2]; Day 42, 50 mg/kg intraperitoneal once a day, vehicle control 8/8) | Sideration ratio of arthritis (number of diseased animals/number of tested animals) ([2]; Day 49, 50 mg/kg intraperitoneal once a day, vehicle control 8/8) | Metastatis inhibition ratio (%) ([3]; 10 mg/kg × 11 times (head), oral, Day 15) | Lung weight increase (g) against normal mouse ([3]; 10 mg/kg × 11 times (head), oral, Day 15, vehicle control 0.183 ± 0.11) | Weight of lung (g) (Day 15) ([3]; 10 mg/kg × 11 times (head), oral, Day 15, vehicle control 0.364, normal mouse 0.181) | inhibition ratio of experimental metastasis of Colon 26/AD to lung ([3]; 10 mg/kg, oral administration, total of 12 times, male BALB/c mouse, from lung weight)
1 | CCOCCOc1cc(C(F)(F)F)cc(NNC(=C[N+](=O)[O-])NC)n1 [Compound No. 107] | 35* % | 20.0 ± 5.7 | 41* % | 18.2 ± 1.6 | 62* % | 11.8 ± 5.0 | 93* % | 2.0 ± 2.8 |  |  |  |  |  |  |  |  |  |  |  | 
2 | CCOCCOc1cc(C(F)(F)F)cc(NNC(=C[N+](=O)[O-])NS(C)(=O)=O)n1 [Compound No. 164, N-(1-(6-(2-ethoxyethoxy)-4-trifluoromethyl-2-pyridyl)hydrazino-2-nitroethenyl)methanesulfonamide] | 23% | 23.6 ± 3.2 | 44* % | 17.2 ± 4.1 | 44* % | 17.2 ± 6.0 | 66* % | 10.4 ± 5.7 | significantly delayed | no distinct toxicity or inhibition against the body weight increase | 0/8 | 0/8 | 2/8 | 6/8 | 7/8 | 7/8 |  |  |  | 
3 | CS(=O)(=O)NC(=C[N+](=O)[O-])NNc1cc(C(F)(F)F)cc(Cl)n1 [Compound No. 157, N-(1-(6-chloro-4-trifluoromethyl-2-pyridyl)hydrazino-2-nitroethenyl)methanesulfonamide] |  |  |  |  |  |  |  |  |  |  |  |  |  |  |  |  | 59.5%* | 0.070 ± 0.08 g | 0.257 g | 59.5%
